Assay results taken from patent US20260272967A1, “TRADITIONAL CHINESE MEDICINE COMPOSITION FOR TREATING LUNG INFLAMMATION RELATED DISEASES AND ITS USES” (XIYUAN HOSPITAL, CHINA ACADEMY OF CHINESE MEDICAL SCIENCES, priority 2023, published 2026).
Where two headings read alike, the source gives them in different places.

How the values were obtained:
RAW264.7 cells = conditions: reported by NICM Health Research Institute; cited from earlier work
ALI mice induced by LPS [1] = assay: Mouse acute lung injury model: BALF inflammatory factors and lung pathology (Experimental Example 6); assay type: in vivo; conditions: three-component 398 mg/kg intragastric, dexamethasone 5 mg/kg i.p.
Description: (§1) Establishment of mouse acute lung injury model: Mice were anesthetized with isoflurane, and LPS (1 mg/kg) was instilled into one side of the nasal cavity. After instillation, the mice were stood upright quickly, and returned to the original feeding cage after waking up to complete modeling.
(§2) All drugs were administered 0.5 h after establishing the mouse ALI model with LPS.
The levels of inflammatory factors IL-1B, IL-6 and TNF-α in BALF were determined in strict accordance with the instructions of the inflammatory factor detection kit.
The right upper lobe of the mouse lung was fixed with tissue fixative for 72 hours, and HE-stained sections were prepared by paraffin embedding, sectioning, dehydration and staining. Lung tissue lesions were observed under a microscope.

ALI mice induced by LPS [2] = assay: Mouse acute lung injury model: lung index, W/D, BALF leukocytes and protein (Experimental Example 5); assay type: in vivo; conditions: three-component 398 mg/kg intragastric, dexamethasone 5 mg/kg i.p.
Description: as §1, §2
24 h after model establishment, mice were anesthetized with pentobarbital sodium and sacrificed by abdominal aorta bloodletting. Lung tissues were dissected and weighed, and the lung coefficient (lung tissue weight/mouse body weight) was calculated; the right upper lobe of the mouse lung was fixed in formalin, and pathological sections were made and stained with HE to observe pathological changes; the middle and lower lobes of the right lung of the mouse were weighed (wet weight), placed in a 60° C. oven to dry to constant weight, and weighed (dry weight), and the wet-to-dry weight ratio (wet weight/dry weight, W/D) was calculated. The right bronchus of the mouse was ligated, the left lobe of the lung was taken, and bronchoalveolar lavage fluid (BALF) was recovered after lavage with 0.8 mL PBS for three times. The total number of leukocytes and total protein concentration were determined using an automatic cell counter.

[3] = test system: LPS-induced RAW264.7 cells; assay: Inhibition of NO release in LPS-induced RAW264.7 cells, with Chou-Talalay synergy analysis (Experimental Example 1); assay type: cell-based, mouse; conditions: for NO Production Rate: LPS 50 ng/mL 24 h, LPS without drug = 100%; for IC50: read-out: IC50 (concentration at which NO production is 50%), LPS-induced RAW264.7 cells, NO release
Description: RAW264.7 cells were seeded in a 96-well cell culture plate at 1×10^6/mL and cultured for 24 h. […] The cells were pretreated with the serially diluted drug solutions for 2 h, and then treated with LPS (50 ng/mL) for 24 h. The cell supernatant was aspirated, the NO release level in the supernatant was determined, and the IC50 values of the four groups of drugs inhibiting NO release were calculated. The dose-effect relationships of the three single components and the three-component composition were imported into CalcuSyn software 2.0 (Biosoft, USA), and the inhibition rate-combination index plot (Fa-CI) was generated using the Chou-Talalay mathematical model. The Fa-CI plot can reflect the relationship between the CI value and the effective level of a certain biological index (i.e., the inhibitory effect on NO). The intensity and nature of the interaction between drugs can be quantitatively judged by the value of CI: CI>1 indicates antagonism, CI=1 indicates additive effect, and CI<1 indicates synergism.

SMILES | inhibiting LPS-induced NO release from RAW264.7 cells (RAW264.7 cells) | NO Production Rate ([3]; 0.86 μM) [%] | NO Production Rate ([3]; 12.5 μM) [%] | NO Production Rate ([3]; 25 μM) [%] | NO Production Rate ([3]; 50 μM) [%] | NO Production Rate ([3]; 100 μM) [%] | IC50 ([3]; Mus musculus) [µM] | NO Production Rate ([3]; 1.63 μM) [%] | NO Production Rate ([3]; 3.125 μM) [%] | NO Production Rate ([3]; 6.25 μM) [%] | further results
O=c1cc(-c2ccc(O)c(O)c2)oc2cc(O)cc(O)c12 [luteolin] | a certain effect |  |  |  |  |  |  |  |  |  | 
C=C1CC[C@@H]2[C@](C)(CO)[C@H](O)CC[C@@]2(C)[C@@H]1C/C=C1/C(=O)OC[C@H]1O [andrographolide] | a certain effect |  |  |  |  |  |  |  |  |  | 
C[C@@H]1C[C@H]2[C@@H]3CCC4=CC(=O)C=C[C@]4(C)[C@@]3(F)[C@@H](O)C[C@]2(C)[C@@]1(O)C(=O)CO [Dexamethasone, dexamethasone] |  |  |  |  |  |  |  |  |  |  | IL-1β in BALF (ALI mice induced by LPS [1]; ALI mice, 24 h after LPS): 186.475 ± 76.810 pg/mL; IL-6 in BALF (ALI mice induced by LPS [1]; ALI mice, 24 h after LPS): 819.19 ± 506.63 pg/mL; TNF-α in BALF (ALI mice induced by LPS [1]; ALI mice, 24 h after LPS): 345.080 ± 239.594 pg/mL; Pathological Score (ALI mice induced by LPS [1]; lung tissue, HE staining): 6.70 ± 2.50; BALF Leukocytes (ALI mice induced by LPS [2]; 24 h after LPS): 18.760 ± 7.468 ×10^5 cells/mL; BALF Protein Concentration (ALI mice induced by LPS [2]; 24 h after LPS): 0.814 ± 0.183 mg/mL; Lung Index (BW) (ALI mice induced by LPS [2]; lung tissue weight/body weight, 24 h after LPS 1 mg/kg intranasal, 0.5 h after LPS): 0.816 ± 0.089; Wet-to-Dry Weight Ratio (W/D) (ALI mice induced by LPS [2]; right lung lobes, 24 h after LPS): 4.701 ± 0.221
O=c1cc(-c2ccccc2)oc2cc(O)c(O)c(O)c12 [Baicalein, baicalein] | a certain effect | 90.14 ± 7.64 | 60.52 ± 5.14 | 40.47 ± 6.87 | 7.77 ± 3.47 | 2.44 ± 2.33 | 11.3 ± 1.32 |  |  |  | 
CC1(C)[C@@H](O[C@H]2O[C@H](C(=O)O)[C@@H](O)[C@H](O)[C@H]2O[C@@H]2O[C@H](C(=O)O)[C@@H](O)[C@H](O)[C@H]2O)CC[C@]2(C)[C@H]3C(=O)C=C4[C@@H]5C[C@@](C)(C(=O)O)CC[C@]5(C)CC[C@@]4(C)[C@]3(C)CC[C@@H]12 [Glycyrrhizic Acid, glycyrrhizic acid] | a certain effect | 105.02 ± 8.02 | 80.67 ± 4.74 | 71.04 ± 3.50 | 55.35 ± 3.98 | 43.54 ± 6.10 | 78.8 ± 11.9 | 88.06 ± 5.38 | 86.28 ± 2.29 | 81.79 ± 5.81 | 
CCCCC/C=C/C(=O)CCc1ccc(O)c(OC)c1 [6-Shogaol, 6-shogaol] | a certain effect |  | 11.42 ± 2.69 | 8.67 ± 0.84 | 6.11 ± 2.41 | 5.89 ± 3.38 |  | 60.42 ± 6.14 | 56.75 ± 6.97 | 41.41 ± 2.75 | IC50 [3]: 3.23 ± 0.42 µM
